± gives the standard error.
Each compound was assayed on 621-102 (TSC2-deficient) (assay: relative viability vs DMSO; higher = less cytotoxic). Conditions: 1 µM; serum: 10% FBS; 72 h.
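Note: immortalized renal angiomyolipoma cells stably carrying empty vector or TSC2, dosed in 384-well plates in DMEM, viability normalized to vehicle-treated wells within each plate.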

Row | Compound | relative viability [%]
1 | COc1cccc(-c2cc(=O)c3ccccc3o2)c1N | 107.8 ± 0.69
2 | COc1cccc(Nc2c(C(N)=O)cnc3c(C)cc(S(=O)(=O)c4cccc(C(=O)N(C)C)c4)cc23)c1 | 97.1 ± 0.98
3 | COc1ncc(-c2ccc3nccc(-c4ccnnc4)c3c2)cc1NS(=O)(=O)c1ccc(F)cc1F | 23.3 ± 2
4 | C[C@@H](Oc1cc(-c2cnn(C3CCNCC3)c2)cnc1N)c1c(Cl)ccc(F)c1Cl | 98 ± 2.9
5 | C[C@@H](Oc1cc(-n2cnc3ccc(CN4CCN(C)CC4)cc32)sc1C(N)=O)c1ccccc1C(F)(F)F | 40.7 ± 3.1
6 | C[C@@H]1CN(CC(=O)Nc2ccc3c(c2)Cc2cccc(-c4cc(=O)cc(N5CCOCC5)o4)c2S3)C[C@H](C)O1 | 97.3 ± 1.5
7 | Cc1ccc(CN2CCNCC2)cc1NC(=O)CNc1ccc(F)c(F)c1 | 88 ± 1.4
8 | Cc1cccc(-c2nn3c(c2-c2ccnc4ccc(C(N)=O)cc24)CCC3)n1 | 96 ± 2.2
9 | Cc1ccccc1-n1c(Cn2cnc3c(N)ncnc32)nc2cccc(C)c2c1=O | 101.3 ± 0.42
10 | Cn1cc(-c2ccc3nnc(C(F)(F)c4ccc5ncccc5c4)n3n2)cn1 | 96.8 ± 4.5
11 | NC1=N[C@@]2(c3cc(NC(=O)c4ccc(F)cn4)ccc3F)COC[C@H]2CS1 | 99.9 ± 2
12 | Nc1nc(Nc2ccc(S(N)(=O)=O)cc2)nn1C(=O)c1c(F)cccc1F | 97 ± 1.4
13 | O=C(NOCC(O)CO)c1cc(Br)c(F)c(F)c1Nc1ccc(I)cc1F (stereo not drawn) | 100 ± 1.4
14 | O=C(NOC[C@H](O)CO)c1ccc(F)c(F)c1Nc1ccc(I)cc1F | 98.6 ± 1
15 | O=C(c1ccc(F)cc1)N1CCC[C@H](c2nc(-c3ccc(F)cc3)no2)C1 | 97.3 ± 4.3
16 | O=C1NC(=O)/C(=C/c2ccc3nccc(-c4ccncc4)c3c2)S1 | 80.5 ± 5
17 | O=c1cc(-c2cccc3c2Sc2ccccc2S3)oc(N2CCOCC2)c1 | 100 ± 2.1
18 | O=c1cc(N2CCOCC2)oc2c(-c3ccccc3)cccc12 | 104 ± 1.5
19 | OCCn1cc(-c2cnc3nnn(Cc4ccc5ncccc5c4)c3n2)cn1 | 96 ± 2.5
20 | Oc1ccc([C@@H]2Oc3ccc(O)cc3[C@@H]3CCC[C@@H]32)cc1 | 113 ± 5.1
21 | c1ccc2c(CCNc3ccc(Nc4ccncc4)cc3)c[nH]c2c1 | 110 ± 6.2

Same assay, conditions: 10 µM; serum: 10% FBS; 72 h

Row | Compound | relative viability [%]
22 | C=CC(=O)N1CCC[C@@H](n2nc(-c3ccc(Oc4ccccc4)cc3)c3c(N)ncnc32)C1 | 110 ± 4.6
23 | CC(=O)c1c(C)c2cnc(Nc3ccc(N4CCNCC4)cn3)nc2n(C2CCCC2)c1=O | 79 ± 4.2
24 | CC(C)(C(=O)NCC(F)(F)C(F)(F)F)C(=O)N[C@@H]1C(=O)Nc2ccccc2-c2ccccc21 | 113 ± 1.8
25 | CC(C)(C)Cn1c(N)nc2ccc(-c3[nH]c(C(C)(C)C)nc3-c3ccc(F)cc3)nc21 | 95.24 ± 0.28
26 | CC(C)CC(=O)Nc1n[nH]c2c1CN(C(=O)C1CCN(C)CC1)C2(C)C | 13.5 ± 0.25
27 | CC(C)c1cc(-c2ccc(F)c3ccccc23)nc(N)n1 | 97.22 ± 0.33
28 | CC1(C)C(=O)N(CCN2CCC(C(=O)c3ccc(F)cc3)CC2)c2ccccc21 | 97.4 ± 5.7
29 | CC1(C)CC(=O)c2c(C(F)(F)F)nn(-c3ccc(C(N)=O)c(N[C@H]4CC[C@H](OC(=O)CN)CC4)c3)c2C1 | 17 ± 1.1
30 | CC1=C(C(=O)Nc2cc3cn[nH]c3cc2F)C(c2ccc(C(F)(F)F)cc2)CC(=O)N1 (stereo not drawn) | 85.826 ± 0.053
31 | CN(C)Cc1ccc(-c2nc3cccc4c3n2CCNC4=O)cc1 | 110 ± 1.7
32 | CN(c1ncccc1CNc1nc(Nc2ccc3c(c2)CC(=O)N3)ncc1C(F)(F)F)S(C)(=O)=O | 47.7 ± 8.3
33 | CN1CCN(c2ccc([N+](=O)[O-])c3no[n+]([O-])c23)CC1 | 88.03 ± 0.45
34 | CNC(=O)c1ccc(C)c(-n2c(C)cc(OCc3ccc(F)cc3F)c(Br)c2=O)c1 | 103 ± 0.24
35 | CNCc1ccc(-c2[nH]c3cc(F)cc4c3c2CCNC4=O)cc1 | 98.5 ± 1.6
36 | COC(=O)N1CCN(Cc2cccc(NC(=O)Nc3ccc(C)nc3)c2F)CC1 | 95.3 ± 1.4
37 | COc1cc(Nc2ncc(F)c(Nc3ccc4c(n3)N(COP(=O)(O)O)C(=O)C(C)(C)O4)n2)cc(OC)c1OC | 57.13 ± 0.27
38 | COc1cc(OC)c(/C=C/S(=O)(=O)Cc2ccc(OC)c(NCC(=O)O)c2)c(OC)c1 | 30.9 ± 0.31
39 | COc1cc(OC)c(NC(=O)Nc2cc(C)on2)cc1Cl | 92.8 ± 3.9
40 | COc1cc2ncnc(Nc3cccc(Br)c3)c2cc1OC | 75.6 ± 6.2
41 | COc1ccc(-c2cc3c(C)nc(N)nc3n([C@H]3CC[C@H](OCCO)CC3)c2=O)cn1 | 14.1 ± 0.26
42 | COc1ccc(-c2ccc3c(N4CCOCC4)nc(N4C[C@@H](C)O[C@@H](C)C4)nc3n2)cc1CO | 27.6 ± 1.1

Row | Compound | relative viability [%]
43 | COc1cccc(-c2cc(=O)c3ccccc3o2)c1N | 109 ± 2.6
44 | COc1cccc(Nc2c(C(N)=O)cnc3c(C)cc(S(=O)(=O)c4cccc(C(=O)N(C)C)c4)cc23)c1 | 95.9 ± 2
45 | COc1ncc(-c2ccc3nccc(-c4ccnnc4)c3c2)cc1NS(=O)(=O)c1ccc(F)cc1F | 26.3 ± 1.8
46 | C[C@@H](Oc1cc(-c2cnn(C3CCNCC3)c2)cnc1N)c1c(Cl)ccc(F)c1Cl | 10.7 ± 1.4
47 | C[C@@H](Oc1cc(-n2cnc3ccc(CN4CCN(C)CC4)cc32)sc1C(N)=O)c1ccccc1C(F)(F)F | 27.1 ± 3.8
48 | C[C@@H]1CN(CC(=O)Nc2ccc3c(c2)Cc2cccc(-c4cc(=O)cc(N5CCOCC5)o4)c2S3)C[C@H](C)O1 | 65.9 ± 0.85
49 | Cc1ccc(CN2CCNCC2)cc1NC(=O)CNc1ccc(F)c(F)c1 | 92.96 ± 0.19
50 | Cc1cccc(-c2nn3c(c2-c2ccnc4ccc(C(N)=O)cc24)CCC3)n1 | 93.9 ± 4.6
51 | Cc1ccccc1-n1c(Cn2cnc3c(N)ncnc32)nc2cccc(C)c2c1=O | 99.9 ± 0.73
52 | Cn1cc(-c2ccc3nnc(C(F)(F)c4ccc5ncccc5c4)n3n2)cn1 | 98.19 ± 0.64
53 | NC1=N[C@@]2(c3cc(NC(=O)c4ccc(F)cn4)ccc3F)COC[C@H]2CS1 | 96.4 ± 1.9
54 | Nc1nc(Nc2ccc(S(N)(=O)=O)cc2)nn1C(=O)c1c(F)cccc1F | 49.9 ± 5.8
55 | O=C(NOCC(O)CO)c1cc(Br)c(F)c(F)c1Nc1ccc(I)cc1F (stereo not drawn) | 93.7 ± 1.3
56 | O=C(NOC[C@H](O)CO)c1ccc(F)c(F)c1Nc1ccc(I)cc1F | 52.32 ± 0.36
57 | O=C(c1ccc(F)cc1)N1CCC[C@H](c2nc(-c3ccc(F)cc3)no2)C1 | 89.7 ± 2.8
58 | O=C1NC(=O)/C(=C/c2ccc3nccc(-c4ccncc4)c3c2)S1 | 32.8 ± 1.8
59 | O=c1cc(-c2cccc3c2Sc2ccccc2S3)oc(N2CCOCC2)c1 | 80.3 ± 0.73
60 | O=c1cc(N2CCOCC2)oc2c(-c3ccccc3)cccc12 | 80.2 ± 1.1
61 | OCCn1cc(-c2cnc3nnn(Cc4ccc5ncccc5c4)c3n2)cn1 | 93.2 ± 1.2
62 | Oc1ccc([C@@H]2Oc3ccc(O)cc3[C@@H]3CCC[C@@H]32)cc1 | 65.5 ± 4
63 | c1ccc2c(CCNc3ccc(Nc4ccncc4)cc3)c[nH]c2c1 | 68.7 ± 4.9
